Consider 20 compounds from ChEMBL document CHEMBL1208723, “Synthesis and activity of polyacetylene substituted 2-hydroxy acids, esters, and amides against microbes of clinical importance” (Bioorg Med Chem Lett, 2010).

Experiment [1] deals with Candida albicans. The experiment in a line: Antifungal activity against Candida albicans. It counts as functional, organism-based.
Experiment [2] concerns Nakaseomyces glabratus. The experiment in a line: Antifungal activity against Candida glabrata. It counts as functional, organism-based.
In experiment [3] the test system is Candida tropicalis. The experiment can be described thus: Antifungal activity against Candida tropicalis. Format: functional, organism-based.
Experiment [4] concerns Pichia kudriavzevii. The experiment in a line: Antifungal activity against Candida krusei. Format: functional, organism-based.
Experiment [5] relates to Candida parapsilosis. The experiment in a line: Antifungal activity against Candida parapsilosis. Format: functional, organism-based.
Experiment [6] relates to Staphylococcus aureus. The experiment can be described thus: Antibacterial activity against Staphylococcus aureus ATCC 25923. Note: test concentration or dose not given here. Format: functional.
Experiment [7] concerns Pseudomonas aeruginosa. The experiment can be described thus: Antibacterial activity against Pseudomonas aeruginosa ATCC 27853. Note: test concentration or dose not given here. Format: functional.
Experiment [8] has as its system Escherichia coli. The experiment can be described thus: Antibacterial activity against Escherichia coli ATCC 25922. Note: test concentration or dose not given here. Format: functional.
The test system of experiment [9] is Streptococcus pyogenes. The experiment can be described thus: Antibacterial activity against Streptococcus pyogenes ATCC 19615. Note: test concentration or dose not given here. It counts as functional.
Experiment [10] relates to Staphylococcus aureus. The experiment can be described thus: Antibacterial activity against methicillin-resistant Staphylococcus aureus. Note: test concentration or dose not given here. Format: functional.
The mark [11] stands for this setting: Lodderomyces parapsilosis, read-out: IC50.
[12] abbreviates: Nakaseomyces glabratus, read-out: IC50.
Where [13] appears, read: Candida tropicalis, read-out: IC50.
Setting [14] is: Pichia kudriavzevii, read-out: IC50.
Where [15] appears, read: Candida albicans, read-out: IC50.

Molecules are shown by their SMILES. Some results are limits rather than exact numbers.

Regarding `CCCCC#C/C=C\C#CCCCCCCC(O)C(=O)O` (stereo not drawn), the IC50 result in [1] was “Not Active”; in experiment [2] it was “Not Active”; in [3], “Not Active”; in [4], “Not Active”; in [5] (setting [11]) it was 500 µM. Moreover, the “inhibition (INH)” value in [6], in [7], in experiment [8] and in [9] was >75% each time.
Turning to `CCCCC#CC#C/C=C/CCCCCCC(O)C(=O)NCc1ccccc1` (stereo not drawn), the IC50 result in [1], in experiment [2], in [3], in experiment [4] and in experiment [5] was “Not Active” each time. The “inhibition (INH)” value is on record as 25% in [6]; >75% in experiment [7]; 50% in [8]; >75% in experiment [9]; 50% in experiment [10].
As for `CCCC#C/C=C\C#CCCCCC[C@@H]1O[C@](C)(OC)[C@@](C)(OC)OC1=O`, the IC50 entry in [1], in [2], in [3], in [4] and in experiment [5] was “Not Active” in each case. Further, the “inhibition (INH)” value is 25% in experiment [6]; >75% in experiment [7]; 50% in [8]; >75% in experiment [9]; 25% in experiment [10].
Turning to `CCCCC/C=C\C#CC#CCCCCCC(O)C(=O)O` (stereo not drawn), the IC50 result in [1] was “Not Active”; in experiment [2] (setting [12]), 500 µM; in experiment [3] (setting [13]), 1000 µM; in experiment [4] (setting [14]), 1000 µM; in experiment [5] (setting [11]), 2 µM. Besides, the “inhibition (INH)” value in experiment [6], in experiment [7], in experiment [8] and in experiment [9] was >75% throughout.
Consider `CCCC/C=C\C#CC#CCCCCCC(O)C(=O)NCC(C)C` (stereo not drawn), for which the IC50 entry in experiment [1], in experiment [2], in experiment [3], in experiment [4] and in experiment [5] was “Not Active” each time. Further, the “inhibition (INH)” value is 50% in experiment [6]; >75% in experiment [7]; 50% in experiment [8]; >75% in experiment [9]; >75% in experiment [10].
Regarding `CCCCC/C=C\C#CC#CCCCCC[C@@H]1O[C@](C)(OC)[C@@](C)(OC)OC1=O`, the IC50 result in [1], in experiment [2], in experiment [3], in [4] and in [5] was “Not Active” in each case. Further, the “inhibition (INH)” value in [6] is 50%; in experiment [7], >75%; in [8], 50%; in experiment [9] it was >75%; in experiment [10], 25%.
For the compound `CCCCC#CC#C/C=C/CCCCCCC(O)C(=O)O` (stereo not drawn), the IC50 in experiment [1] (setting [15]) is 500 µM; in experiment [2] (setting [12]), 500 µM; in experiment [3] (setting [13]), 500 µM; in experiment [4] (setting [14]) it was 500 µM; in experiment [5] (setting [11]) it was 250 µM. The “inhibition (INH)” value in [6] is on record as 50%; in [7] it was >75%; in experiment [9] it was 25%.
`CCCCC#CC#C/C=C\CCCCCCC(O)C(=O)O` (stereo not drawn): the IC50 result in experiment [1], in [2], in experiment [3], in [4] and in experiment [5] was “Not Active” throughout. Also, the “inhibition (INH)” value is on record as 25% in [6] and >75% in experiment [7].
On to `CCCCCC#C/C=C\C#CCCCCCC(O)C(=O)O` (stereo not drawn), for which the IC50 result in experiment [1], in [2], in [3], in [4] and in [5] was “Not Active” in each case. Moreover, the “inhibition (INH)” value in experiment [6] was >75%; in experiment [7] it was >75%; in [8] it was 50%; in experiment [9] it was >75%.
With `CCCCCC#CC#CC#CCCCCCC(O)C(=O)O` (stereo not drawn), the IC50 result is “Not Active” in experiment [1]; 500 µM in experiment [2] (setting [12]); 500 µM in experiment [3] (setting [13]); 500 µM in [4] (setting [14]); 2 µM in experiment [5] (setting [11]). For the same compound, the “inhibition (INH)” value in [6] is on record as >75%; in experiment [7] it was >75%; in experiment [8], >75%; in experiment [9] it was 50%.
Turning to `CCCCCC#CC#C/C=C/CCCCCC(O)C(=O)O` (stereo not drawn), the IC50 in experiment [1] (setting [15]) came out at 500 µM; in experiment [2] (setting [12]), 500 µM; in experiment [3] (setting [13]), 500 µM; in [4] (setting [14]) it was 500 µM; in experiment [5] (setting [11]) it was 2 µM. The “inhibition (INH)” value in experiment [7] is listed as >75%; in experiment [8], 25%; in experiment [9] it was 50%; in experiment [10], >75%.
In the case of `CCCCC#CC#C/C=C/CCCCCC[C@@H]1O[C@](C)(OC)[C@@](C)(OC)OC1=O`, the IC50 result in [1], in experiment [2], in experiment [3], in experiment [4] and in [5] was “Not Active” in each case. The “inhibition (INH)” value in experiment [6] is reported as 25%; in experiment [7], >75%; in [8], 50%; in [9] it was >75%; in experiment [10] it was 25%.
For `CCCCCC/C=C\C#CC#CCCCCC(O)C(=O)OC` (stereo not drawn), the IC50 result in experiment [1] was “Not Active”; in experiment [2] (setting [12]), 1000 µM; in [3], “Not Active”; in [4], “Not Active”; in [5] (setting [11]), 30 µM. Besides, the “inhibition (INH)” value in experiment [6] is on record as 50%; in [7], >75%; in experiment [8], 25%; in [9], >75%; in experiment [10], >75%.
`O=C(O)C(O)CCCCCCC#C/C=C\C#Cc1ccco1` (stereo not drawn): the IC50 result in [1] was “Not Active”; in experiment [2], “Not Active”; in experiment [3], “Not Active”; in experiment [4], “Not Active”; in experiment [5] (setting [11]), 500 µM. For the same compound, the “inhibition (INH)” value in [6] is on record as >75%; in [7], >75%; in [8], >75%; in experiment [9], >75%; in experiment [10] it was 25%.
Take `CCCC#C/C=C\C#CCCCCCC(O)C(=O)OCCCc1ccccc1` (stereo not drawn): the IC50 result in [1], in experiment [2], in [3], in experiment [4] and in experiment [5] was “Not Active” throughout. In addition, the “inhibition (INH)” value was 25% in [6]; >75% in experiment [7]; 50% in experiment [8]; >75% in experiment [9]; 25% in experiment [10].
As to `CCCC#CC#CC#CCCCCCC(O)C(=O)O` (stereo not drawn), the IC50 in [1] (setting [15]) is 500 µM; in [2] (setting [12]) it was 500 µM; in [3] (setting [13]), 500 µM; in [4] (setting [14]), 500 µM; in experiment [5] (setting [11]), 125 µM. The “inhibition (INH)” value in experiment [6], in [7], in [8] and in experiment [9] was >75% throughout.
As to `CCCC#CC#CC#CCCCCC[C@@H]1O[C@](C)(OC)[C@@](C)(OC)OC1=O`, the IC50 result in experiment [1], in [2], in [3], in experiment [4] and in [5] was “Not Active” in each case. The “inhibition (INH)” value in experiment [6] was 50%; in [7], >75%; in experiment [8], >75%; in [9], >75%; in experiment [10], 25%.
Take `CCCCCC#C/C=C\C#CC[C@@H]1O[C@](C)(OC)[C@@](C)(OC)OC1=O`: the IC50 entry in [1], in experiment [2], in experiment [3], in experiment [4] and in [5] was “Not Active” each time. The “inhibition (INH)” value in experiment [6] was 25%; in experiment [7], >75%; in [8], 50%; in experiment [9], >75%; in experiment [10] it was 25%.
In the case of `CCCC#C/C=C\C#CCCCCCC(O)C(=O)O` (stereo not drawn), the IC50 entry in experiment [1], in experiment [2], in experiment [3], in experiment [4] and in experiment [5] was “Not Active” in each case. Further, the “inhibition (INH)” value in [6] is listed as >75%; in experiment [7], >75%; in experiment [8] it was 50%; in experiment [9], >75%.
For the compound `CCCCCC#CC#C/C=C/CCCCCC(O)C(=O)OC` (stereo not drawn), the IC50 in experiment [1] (setting [15]) is 1000 µM; in experiment [2] (setting [12]), 500 µM; in experiment [3] it was “Not Active”; in experiment [4], “Not Active”; in experiment [5], “Not Active”. For the same compound, the “inhibition (INH)” value in experiment [6] is 25%; in experiment [7] it was >75%; in experiment [8], 50%; in [9], >75%; in experiment [10], >75%.
